Source: patent US7763287B2, “Extract of Cercis chinensis having anti-oxidant activity and anti-aging activity, and cosmetical composition containing the extract for anti-oxidation, skin-aging protection and wrinkle improvement” (Hankook Pharm. Co., Inc., priority 2002, dated 2010)

Key:
[1] = tested on: HEK-N/F cells; experiment: Protection of cells from oxidative damage induced by t-butylhydroperoxide; type: cell-based, human; details: 1.5 mM t-butylhydroperoxide 3 hours
Experimental: t-butylhydroperoxide is metabolized into a free radical intermediate as it comes in a cell, so that it causes lipid peroxidation, resulting in cell damage. This phenomenon is similar to that caused by oxidataive stress accumulated in cells and tissues. […] HEK-N/F, an epidermal cell line of a newborn baby, was treated with 1.5 mM of t-butylhydroxyperoxide for 3 hours.

[2] = tested on: HEK-N/F cells; experiment: Cell protection from UV irradiation (DNA damage, ethidium homodimer fluorescence); type: cell-based, human; details: 35 mJ/cm^2 UVB, Et2 fluorescence (DNA damage)
Experimental: UV irradiation induces DNA damage and DNA-protein connection by increasing active oxygen in cells. When HEK-N/F cells were irradiated by 35 mJ/cm^2 of UVB, DNA chains in nucleus were cut. After uniting the broken chains to ethidium homodimer (Et2), a DNA chain intercalating fluorescent dye, extent of fluorescence was measured to quantify the amount of DNA damage. Particularly, HEK-N/F cells were cultured on serum-free KGM medium (Clonetics), which were inoculated into wells of a 24-well plate by 0.5−4×10^4 cells/2 cm^2. Then, the cells were cultured for 18 hours, after which a sample was treated thereto for 2 hours. […] The cells exposed on UV were further cultured for 1-7 hours, and then, […] ethidium homodimer (Et2, Millipore) was added. 30 minutes later, fluorescence was measured with Millipore microplate fluorometer Cytofluor 2350 (excitation: 485 nm, emission: 645 nm).

[3] = tested on: HEK-N/F cells; experiment: Telomere length / maximum PDL (Southern blot of TRFs); type: cell-based, human
Experimental: In the above Example 8, an extract of […] chinensis and active ingredients separated from the same were confirmed to have an effect of prolongation of life span of a cell. Thus, in this example, relation between the effect of prolongation of life span and the length of a telomere was investigated. Particularly, genomic DNA was extracted from each cell of different ages by using a nucleic acid extraction kit (Isoquick Nucleic Acid Extraction kit, ORCA Research Inc.), which was stored at 4° C. after being dissolved in Tris-EDTA solution (10 mM Tris-HCl, 1 mM EDTA, pH 8.0). 2 μl of 10×H buffer solution (TaKaRa), 2 μl of the extracted genomic DNA solution and distilled water were all mixed in a 1.5 ml tube, making final volume 19 μl. Then, 1 μl at of restriction enzyme […]) was added thereto. […] Then, the gel was immersed in 0.25 N HCl, followed by shaking for 15 minutes. The gel was washed twice with distilled water. This gel was dipped into denaturing solution (0.2 N NaOH, 0.6 M NaCl), followed by shaking for 25 minutes at room temperature. And then, the gel was washed three times with distilled water. On a blotting device filled with 6×SSC, nitrocellulose membrane (Optitran BA-S 85, Schleicher & Schuel), 3 mm filter paper, paper towel, glass plate and weight (2 kg) were loaded in that order, followed by blotting overnight. After the blotting was finished, membrane filter was soaked in 3×SSC, and then water was discarded smoothly. The positions of the wells on the membrane were marked. The membrane was placed between filter papers, followed by baking at 80° C. for overnight. […] After being dried, the membrane was covered with wrap and set in a cassette on which X-ray film (Scientific Imaging Film, Kodak) and intensifying screen were attached. Autoradiography was performed at -80° C. for overnight. Based on the developed film and the location of the membrane, the positions of the wells were marked by a magic pen. The density peak of TRFs was detected by a laser densitometer (UltroScan XL, Pharmacia) and its mobility was calculated.

[4] = tested on: back skin of SKH-1 hairless mouse; experiment: Protection of skin tissues from UVB irradiation in hairless mice; type: in vivo
Experimental: 5-6 week old female hairless mice (SKH-hr 1) were raised for 14 days at 24±2° C. with 50±10% relative humidity and 12 hour day/night cycle. 30-60 minutes before the experiment, a sample was hyperdermically injected on 5 spots of the mice and the backs of the mice were irradiated by UVB. 5 mice per each group were put in a cage (20×15×5 cm) and UVB irradiation was performed using a UV lamp (HP-15M, 280-400 nm, max. 312 nm; Atto Co., Japan) at 15 cm distance by 15 kJ/m^2. After the completion of UV irradiation for 24 hours, back skin was cut and stored at −70° C. until peroxidation was measured.
UVB irradiation causes serious lipid peroxidation in skin tissues, so measurement of the peroxided lipid content might lead to the measurement of skin damages. Particularly, UVB was irradiated on the back skin of SKH-1 hairless mouse. 48 hours later, the back skin tissues were cut to measure lipid peroxidation by thiobarbituric acid (TBA) method. The back skin of the mouse was put in a 10×50 mM K-P buffer solution for homogenation.
Hydrogen peroxidation was also investigated. The frozen back skin section was put in 0.1 M Tris-HCl buffer solution (pH 7.5) containing 1 mg/ml of glucose and 1 mg/ml diaminobenzidine (DAB), which was cultured at 37° C. for 5-6 hours. After being washed with distilled water, the solution was stained with 2% methyl green for 60 minutes. Nucleus stained blue and DAB peroxidase (brown) were observed under a microscope.

[5] = tested on: HEK-N/F cells; experiment: Prolongation of life span of a cell; type: cell-based, human; details: 3 μg/ml during culture
Experimental: HEK-N/F cells were obtained from foreskin of a newborn baby after its fibroblasts, another major component of skin, were treated with uridine bromide. Then, the cells were cultured in DMEM medium supplemented with 10 FBS. HEK-N/F cells were diluted consecutively at the ratio of 1:4 during the culture. Before being treated with samples, the cells were grown up to 3 PDL (population doubling level). During the culture, each sample was administered by […]. Medium was replaced every three days by fresh medium supplemented with a culture solution containing the equal concentration of the sample.

Oc1cc(O)cc(/C=C/c2ccc(O)c(O)c2)c1 [Chemical Formula 5, piceatannol]
Cell survival rate (%) [1]: 84.7±6.9%
TBARS (pmol/mg protein) ([1]; compound 50.0 µg/ml): 520.2 ± 60.7 pmol/mg protein
fluorescence lower than that of a control [2]: 66.7%
telomere shortening speed delayed, comparing to control [3]: 2.1 times
maximum PDL ([3]; control 14.1): 29.9
TBARS (nmol/mg protein) ([4]; treating amount 10 mg/kg + UVB irradiation): 0.16 ± 0.08 nmol/mg protein
TBARS (nmol/mg protein) ([4]; treating amount 30 mg/kg + UVB irradiation): 0.07 ± 0.03 nmol/mg protein
average life span of a cell [5]: 76 days
life span, times as long as that of a control [5]: 2.1 times
